Reference: patent US20240122865A1, “Methods of Protecting RNA” (Pfizer Inc., priority 2021, published 2024)

Columns and labels:
Assay type in all cases: biochemical, Trichoderma atroviride
[1] = target: Chi18 model RNA; experiment: Droplet Digital Polymerase Chain Reaction (ddPCR) Assay, Chi18; conditions: percent protection, pH 11.0, 30° C., 16 hours, n = 2
Method: (§1) The ddPCR assays measure RNA integrity by converting intact RNA to cDNA by reverse transcription, then performing digital PCR in thousands of nanoliter-sized droplets for each sample. PCR is performed within each droplet, which allows for more sensitive detection of subtle changes in RNA concentration compared to traditional PCR or qPCR. Additionally, primers/probes specific to the 5′ end of the RNA/cDNA transcript(s) are used to assess fragment integrity—e.g. degraded RNA will have fewer 5′ positive droplets. The BioRad QX200 Droplet Digital PCR System was used for the ddPCR workflow.
(§2) Basic assay procedure: RNA samples (Chi18 or FgenL fragments) were diluted to 25 fg/μL or 10 fg/μL, respectively, in 50 mM […] buffer pH 11.0. Amino acid stocks were made up in 50 mM CAPS buffer, pH 11.0 and subsequently re-adjusted to pH 11.0, post solubilization. Amino acid stocks were tested in a dose-response format to determine EC50. An amino acid dilution plate containing a ˜300 mM (or appropriate) top-concentration of amino acid in 50 mM CAPS buffer was serially (half-log) diluted for 10 times. 0.6 μL of this compound dilution plate was spotted into a 96-well PCR plate (Thermo). Sample RNAs were added (6 μL) and incubated with test amino acid as described below.
(§3) Degradation reaction: Treated RNAs were incubated for 16 hours at 30° C. for Chi18 samples or 44° C. for FgenL samples. Upon completion of the degradation reaction, cDNA was made from the intact RNA by Reverse Transcription and ddPCR run for each sample (96 well plates). Positive 5′ droplet values were divided by the total accepted droplet values for each sample and a ratio value generated for each sample.
(§4) EC50 was determined by using a four parameter logistic equation: Y=A+((B−A)/(1+(C/X)D)); where Y is percent protection, X is compound concentration, A and B are minimum and maximum asymptotes, respectively, C is EC50, and D is Hill slope.

[2] = tested on: FgenL model RNA; conditions: percent protection, pH 11.0, 44° C., 16 hours, n = 2
Method: as §1, §2, §3, §4

[3] = tested on: Chi18 model RNA; experiment: TapeStation Assay, Chi18 model RNA; design: Conc. chi18#1 / Conc. chi18#2: unit not given here; conditions: for % Control N = 1 / % Control N = 2 / % Control Avg.: Chi18 RNA, 20 mM amino acids, 50 mM CAPS pH 11, 50° C. 15 min; for % Control N = 1 / % Control N = 2: vs Time 0; for % Control Avg.: vs Time 0, Avg N=2; for Conc. chi18#1 / Conc. chi18#2: intact Chi18 RNA after 15 min at 50° C.; for Conc. chi18#1: 20 mM amino acids in 50 mM CAPS pH 11, run #1; for Conc. chi18#2: 20 mM amino acids in 50 mM CAPS pH 11, run #2
Method: (§5) These assays were performed with amino acids and compared to a no-degradation baseline control to gauge degree of protection imparted by the amino acid. Multiple functional assay approaches were used where differing endpoints were measured including a droplet digital PCR (ddPCR) assay where intact RNA sequence was quantitated, a size exclusion base hydrolysis degradation assay that used a size exclusion column to determine the degree of degradation occurring to an mRNA construct, and finally, a TapeStation assay that utilizes capillary electrophoresis and optical detection to measure intact RNA. […] Affinity selection by mass spectrometry (ASMS), native electrospray ionization mass spectrometry (nESI-MS) and nuclear magnetic resonance (NMR) may be used as several complementary approaches to ascertain compound binding to RNA. The latter techniques utilize MS to measure mass of bound compound alone (ASMS), or mass of RNA and bound compound (nESI-MS). The nESI-MS and NMR studies may be conducted to provide direct analytical quantification of resulting complex via measurement of mass (nESI-MS) or chemical shifts (NMR). The ASMS experiment is conducted to determine saturation binding of the compound to RNA where resulting apparent binding constants (KD,App) may be generated. Further descriptions of the functional and binding assays are provided in the section below.
(§6) In principle, samples are loaded to the instrument where electrophoresis separates component RNA's on the basis of mass, and subsequently analyzes these optically as they travel through the capillary.
(§7) RNA samples were diluted to the appropriate concentration to fall within the linear range of detection for the RNA ScreenTape Assay. Model Chi18 or FgenL RNAs were diluted to 50 ng/μL in 50 mM CAPS buffer pH 11. Amino acid stocks were made up in 50 mM CAPS pH 11 and re-adjusted to >pH 11 after solubilization. […] The samples were aliquoted to PCR tubes for each time point (Time 0 or 15 minutes). Degradation reaction: Samples were incubated at 50° C. for 0 to 15 minutes in a thermocycler, removed at the appropriate time point and placed on ice. Time 0 samples remained on ice.

[4] = tested on: FgenL model RNA; experiment: TapeStation Assay, FgenL model RNA; design: Conc. FgenL#1 / Conc. FgenL#2: unit not given here; conditions: for % Control N = 1 / % Control N = 2 / % Control Average: FgenL RNA, 20 mM amino acids, 50 mM CAPS pH 11, 50° C. 15 min; for % Control N = 1 / % Control N = 2: vs Time 0; for Conc. FgenL#1 / Conc. FgenL#2: intact FgenL RNA after 15 min at 50° C.; for Conc. FgenL#1: 20 mM amino acids in 50 mM CAPS pH 11, run #1; for Conc. FgenL#2: 20 mM amino acids in 50 mM CAPS pH 11, run #2; for % Control Average: vs Time 0, Avg N=2
Method: as §5, §6, §7

[5] = tested on: Chi18 mRNA construct; experiment: Size Exclusion Base Hydrolysis Degradation Assay, Chi18; conditions: for T0 R1 peak area at 250 nm: Chi18 0.1 mg/mL, 25 mM amino acid, 50 mM CAPS, T=0, replicate 1; for T2 Avg, peak area as percentage of T=0 / T2 R1 peak area at 250 nm / T10 Avg, peak area as percentage of T=0 / T10 R1 peak area at 250 nm / T24 Avg, peak area as percentage of T=0 / T24 R1 peak area at 250 nm / T0 Avg, peak area as percentage of T=0: Chi18, 25 mM amino acid; for T2 Avg, peak area as percentage of T=0 / T2 R1 peak area at 250 nm / T10 Avg, peak area as percentage of T=0 / T10 R1 peak area at 250 nm / T24 Avg, peak area as percentage of T=0 / T24 R1 peak area at 250 nm: 50 mM CAPS pH 11, room temperature; for T2 Avg, peak area as percentage of T=0 / T2 R1 peak area at 250 nm: 2 hrs; for T2 R1 peak area at 250 nm / T10 R1 peak area at 250 nm / T24 R1 peak area at 250 nm: replicate 1; for T10 Avg, peak area as percentage of T=0 / T10 R1 peak area at 250 nm: 10 hrs; for T24 Avg, peak area as percentage of T=0 / T24 R1 peak area at 250 nm: 24 hrs; for T0 Avg, peak area as percentage of T=0: T=0 (reference)
Method: Basic assay procedure: RNA samples were diluted to 1.0 mg/mL in DNAase/RNAase free water. Amino acids were dissolved in water to a stock solution of 100 mM and a solution of 500 mM CAPS pH 11 was used. The two mRNA constructs tested were FgenL and Chi18. Each individual sample volume was 50 μL. To determine the amount of 1 M NaOH needed to adjust the final pH to 11.0 after the addition of all sample components, the sample volume was increased 100 fold (5 mL), the volume of 1 M NaOH recorded and this value was translated back down to the 50 μL sample volume.
The mRNA and amino acid were allowed to incubate for one hour prior to the addition of CAPS pH 11. All steps of the assay were conducted at room temperature.
Degradation reaction: After the CAPS addition, the samples were injected onto the Waters H-Class UPLC system to record the first timepoint, T=O. This resulting chromatogram was processed by integrating the area of absorbance at 250 nm for the mRNA construct. Immediately following this timepoint, the pH was adjusted to 11. Subsequent time points (2 hrs, 10 hrs, and 24 hrs) recorded the Absorbance Units (peak area) at 250 nm as a percentage of the peak area determined at T=O. Integration of the chromatogram for subsequent timepoints was conducted by analyzing the area of absorbance at 250 nm contained within the same time window in which the peak eluted in T=0 for the 100% intact mRNA.

Structure (SMILES) | EC50 [1] [mM] | EC50 [2] [mM] | % Control N = 1 [3] [%] | % Control N = 2 [3] [%] | % Control Avg. [3] [%] | Conc. chi18#1 [3] | Conc. chi18#2 [3] | % Control N = 1 [4] [%] | % Control N = 2 [4] [%] | Conc. FgenL#1 [4] | Conc. FgenL#2 [4] | T0 R1 peak area at 250 nm [5] | T2 Avg, peak area as percentage of T=0 [5] [%] | T2 R1 peak area at 250 nm [5] | T10 Avg, peak area as percentage of T=0 [5] [%] | T10 R1 peak area at 250 nm [5] | T24 Avg, peak area as percentage of T=0 [5] [%] | T24 R1 peak area at 250 nm [5] | T0 Avg, peak area as percentage of T=0 [5] [%] | % Control Average [4] [%]
C[C@H](N)C(=O)O [Alanine] | > 30 | > 30 | 35.3 | 51.4 | 43.3 | 18.8 | 27.2 | 28.8 | 23.2 | 9.93 | 8.05 | 19606 | 71.6 | 13211 | 18.1 | 2730 | 0.0 | 0 | 100.0 | 
N=C(N)NCCC[C@H](N)C(=O)O [Arginine] | 7.6 | > 30 | 5.2 | 4.7 | 4.9 | 2.78 | 2.46 | 4.2 | 3.3 | 1.46 | 1.15 | 20698 | 76.7 | 15655 | 0.0 | 0 | 0.0 | 0 | 100.0 | 3.8
NC(=O)C[C@H](N)C(=O)O [Asparagine] | 4.9 |  | 21.0 | 26.7 | 23.8 | 11.2 | 14.1 | 21.9 | 15.0 | 7.56 | 5.19 | 25494 | 62.7 | 12115 | 0.0 | 0 | 0.0 | 0 | 100.0 | 18.4
